The subject of data set [1] is RSV. Nature of the data set: Cell-based anti-RSV potency in BEAS2B cells. The note with it: human respiratory syncytial virus, BEAS-2B. From the text: (§1) For initial potency assessment, recombinant RSV reporter viruses can be employed to determine dose-response curves. These tests can be run routinely in an automated format, simultaneously assessing 8-fold serial compound dilutions in 3 independent replicates. Active concentrations can be calculated by four-parameter variable slope regression modeling. Individual prodrug candidates failing this assay can be tested for membrane permeability using a Caco-2 cell assay. Resistance-validated Caco-2 monolayers (TEER value >0.5×103Ω) will receive compound from the apical side, followed by LC-MS/MS-based quantification of substance intracellularly and in both chambers after 2-hour incubation. Atenolol, propranolol, and talinolol can be included as references and permeability coefficients (Papp) calculated. Candidates with poor Papp values can be reformulated synthetically. In parallel, all candidates can be subjected to rapid cytotoxicity screening, relying on PrestoBlue to monitor the redox potential of living cells after 48-hour exposure to a concentration range of compound. A validated automated cytotoxicity test pipeline has been established and can calculate CC50 values through variable slope regression modeling.

Data set [2] can be described thus: Cytotoxicity in BEAS2B cells. Type of data set: cell-based. The note with it: human, read-out: CC50 BEAS2B cells RSV.
Source text: as §1

Data set [3] deals with RSV N protein (N-P interaction) (Human respiratory syncytial virus A (strain A2), UniProt P03418). Description: FP assay: competition with 5-FAM-Ppep for purified RSV N. The class given is binding. Conditions: for Ki: FP assay, purified RSV N vs 5-FAM-Ppep.
Chain of RSV N protein (N-P interaction) (P03418 whole entry): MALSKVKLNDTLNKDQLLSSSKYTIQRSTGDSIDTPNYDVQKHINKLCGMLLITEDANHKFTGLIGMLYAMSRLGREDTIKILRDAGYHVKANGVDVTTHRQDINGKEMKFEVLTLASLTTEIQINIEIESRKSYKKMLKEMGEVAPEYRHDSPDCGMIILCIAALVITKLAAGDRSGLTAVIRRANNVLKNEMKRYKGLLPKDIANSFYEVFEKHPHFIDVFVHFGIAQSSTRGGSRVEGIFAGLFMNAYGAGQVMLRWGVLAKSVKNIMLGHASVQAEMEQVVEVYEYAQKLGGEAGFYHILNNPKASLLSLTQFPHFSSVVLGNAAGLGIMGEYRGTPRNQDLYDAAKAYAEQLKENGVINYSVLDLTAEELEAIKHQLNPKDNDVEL
For data set [4], the system named is RSV. Description: Cell-based anti-RSV potency in HEp2 cells. The note with it: human respiratory syncytial virus, HEp-2.
Source text: as §1

A short description of data set [5]: Cytotoxicity in HEp2 cells. The class given is cell-based. The note with it: human, read-out: CC50 HEp2 cells RSV.
Source text: as §1

The target in another data set is RSV N-P interaction (Human respiratory syncytial virus A (strain A2), UniProt P03418). Nature of the data set: Biolayer interferometry (BLI) competition assay, purified N to P protein biosensors. Conditions: PBS+BSA 0.01% +Tween20 0.002%. The class given is binding. From the text: Dissociation rates of purified N to P protein biosensors determined in presence of GRP-171194 under stringent conditions (PBS+BSA 0.01% +Tween20 0.002%).
Chain of RSV N-P interaction (P03418 whole entry): as above
For orientation: Biolayer interferometry detects binding as a change in optical thickness at a sensor tip.

This note sets out measurements from patent US12016863B2, “Inhibitors of RSV replication and applications thereof” (priority 2018, dated 2024).

A word on the IC50: it is the concentration that inhibits the measured activity by half. Low values mean inhibition by little substance, high ones a need for much substance. In general, CC50 refers to the concentration at which the toxic effect on the cells reaches its halfway point. One may read the Ki as the equilibrium dissociation constant of an inhibitor or competing ligand from its target. Low values mean a stronger hold on the target, high ones a looser hold on the target.

Take `Cc1c(Cl)c(=O)oc2cc(O)ccc12` [AX801]: the concentration for half-maximal inhibition (IC50) in the data set with RSV [1] was determined as 65 µM. Moreover, the CC50 at 48 h in data set [2] was 116 µM. For the same compound, the Ki in data set [3] was more than 300 µM.

As to `CC(C)COC(=O)C1=CC(c2ccccc2Cl)n2nnnc2N1` (centres unmarked) [EJ3043], the IC50 in the data set on RSV [4] and in the data set on RSV [1] was more than 300 µM in each case. The CC50 at 48 h in data set [5] and in data set [2] was more than 300 µM in each case. The same compound showed a Ki in data set [3] of more than 300 µM.

`COC(=O)C1=CC(c2ccccc2Cl)n2nnnc2N1` (centres unmarked) [EJ3051]: it took 101 µM to reach half-maximal inhibition with RSV [1] (IC50). Besides, in data set [2], the CC50 at 48 h was 102 µM. In data set [3], this compound displayed a Ki of more than 300 µM.

With `CN(C)C(=O)C1=CC(c2ccccc2Cl)n2nnnc2N1` (centres unmarked) [EJ3054], in the data set on RSV [1], 100 µM corresponded to half-maximal inhibition (IC50). For the same compound, the CC50 at 48 h in data set [2] is 131 µM. In data set [3], this compound came in with an inhibitory constant (Ki) of more than 300 µM.

With `CNC(=O)C1=CC(c2ccccc2Cl)n2nnnc2N1` (centres unmarked) [EJ3057], 112 µM corresponded to half-maximal inhibition with RSV [1] (IC50). In addition, in data set [2], the CC50 at 48 h is more than 100 µM. Besides, the Ki in data set [3] was more than 300 µM.

In data set [3], `COc1ccc2c(C)c(Cl)c(=O)oc2c1` [EJ3061] came in with a Ki of more than 300 µM.

Regarding `CCOC(=O)C1=CC(c2ccccc2Cl)n2nnnc2N1` (centres unmarked) [EJ3062], the IC50 in the data set with RSV [4] and in the data set with RSV [1] was more than 300 µM each time. The CC50 at 48 h in data set [5] and in data set [2] was more than 300 µM in each case. The Ki in data set [3] is more than 300 µM.

`Cc1c(Cl)c(=O)oc2cc(OC(C)C)ccc12` [EJ3063]: the IC50 in the data set with RSV [4] was found to be 1.9 µM; with RSV [1], 14.6 µM. Moreover, the results for the CC50 at 48 h in data set [5] and in data set [2] were 1.2 µM and more than 300 µM, respectively. Moreover, the inhibition constant (Ki) in data set [3] is more than 300 µM.

For `COC(=O)Nc1ccc2c(C)c(Cl)c(=O)oc2c1` [EJ3066], the IC50 in the data set on RSV [4] is more than 100 µM; in the data set on RSV [1] it was 130 µM. The 50% cytotoxic concentration (CC50) at 48 h in data set [5] and in data set [2] was more than 100 µM each time. The same compound registered a Ki in data set [3] of more than 300 µM.

With `CC(=O)Oc1ccc2c(C)cc(=O)oc2c1` [EJ21257], the IC50 in the data set with RSV [4] and with RSV [1] was more than 300 µM throughout. In addition, the half-maximal cytotoxic concentration (CC50) at 48 h in data set [5] is more than 100 µM; in data set [2], 113 µM. This compound also came in with an inhibition constant (Ki) in data set [3] of 2.9 µM.

As for `O=C(O)C1=CC(c2ccccc2Cl)n2nnnc2N1` (centres unmarked) [GRP-171194, 7-(2-chlorophenyl)-4,7-dihydrotetrazolo[1,5-a]pyrimidine-5-carboxylic acid], the IC50 in the data set on RSV [4] and with RSV [1] was more than 300 µM throughout. For the same compound, the CC50 at 48 h in data set [5] and in data set [2] was more than 300 µM each time. In addition, the “inhibition of purified N binding to P protein biosensors (BLI)” value on RSV N-P interaction was “dose-dependent inhibition”. The compound further displayed a Ki in data set [3] of 2.4 µM. In addition, in data set [3] (compound 0.31-40 μM, 5-FAM-Ppep 1 μM), the “competition with 5-FAM-Ppep for N in FP assay” value is listed as “dose-dependent competition”.

In turn, `CC(=O)Oc1ccc2c(C)c(Cl)c(=O)oc2c1` [GRP-268365] gave an inhibitory constant (Ki) in data set [3] of 2.2 µM.

`O=C(O)C1=CC(c2ccccc2)n2nnnc2N1` (centres unmarked) [RJW-3-024] returned an IC50 with RSV [1] of more than 300 µM. The CC50 at 48 h in data set [2] is more than 300 µM. The compound also yielded a Ki in data set [3] of 10 µM.

On to `O=C(OCC(F)(F)F)C1=CC(c2ccccc2Cl)n2nnnc2N1` (centres unmarked) [ZD-3-064], for which the half-maximal inhibitory concentration (IC50) in the data set on RSV [1] is more than 300 µM. The half-maximal cytotoxic concentration (CC50) at 48 h in data set [2] was more than 300 µM. In data set [3], this compound came in with an inhibition constant (Ki) of more than 300 µM.

On to `Cc1c(Cl)c(=O)oc2cc(OC(=O)C(C)C)ccc12` [ZD-3-067], for which the figures for the half-inhibitory concentration (IC50) in the data set with RSV [4] and in the data set with RSV [1] were 6.5 µM and 136 µM, respectively. The CC50 at 48 h in data set [5] came out at 7 µM; in data set [2] it was 251 µM. In data set [3], this compound displayed a Ki of 1.6 µM.

In the case of `CC(C)OC(=O)C1=CC(c2ccccc2Cl)n2nnnc2N1` (centres unmarked) [ZD-3-069], the IC50 with RSV [4] and in the data set with RSV [1] was more than 300 µM throughout. Further, the CC50 at 48 h in data set [5] and in data set [2] was more than 300 µM in each case. Besides, in data set [3], the Ki is more than 300 µM.
